Tests used:
[1] = test system: Corticosterone model of Insulin resistance; assay: Glucose Tolerance Test in the Corticosterone model of Insulin resistance; type: in vivo, mice; conditions: for glucose tolerizing effect in the Corticosteroid model: FIG. 3, summary in Example 1E; for GTT: glucose intolerance at time points after glucose administration / GTT Area Under the Curve (AUC): glucose intolerance relative to placebo: mice, corticosterone 21 days, 10 mg/kg i.p. for the final 5 days; for GTT: glucose intolerance at time points after glucose administration: FIG. 3 A/B; for GTT Area Under the Curve (AUC): glucose intolerance relative to placebo: FIG. 3 C
Method: In a standard model of glucose intolerance and insulin insensitivity, corticosterone (CS) was dosed for 21 days, and in the drug treated group mice were administered Shc Blocker #3=RTX60933293 or #5=RTX73145433 at a dose of 10 mg/kg i.p. for the final 5 days of the 21-day CS treatment. […] By blocking the interaction of Shc protein with phosphotyrosines on the Insulin Receptor, a Shc blocker redirects more signaling to the insulin-sensitizing and glucose tolerizing phospho-Akt. Thus, peripheral cells become more sensitive per molecule insulin, and consequently more glucose tolerant. This prediction is borne out in the Corticosteroid model. Corticosterone is a known model of Type 2 Diabetes and Metabolic Syndrome, as Corticosterone induces peripheral insulin insensitivity.

[2] = test system: Methionine Choline-Deficient (MCD) Mouse model NASH; assay: Liver fibrosis markers in the MCD model of Non-alcoholic Steatohepatitis (NASH); type: in vivo; conditions: mice, MCD 8 weeks, 20 mg/kg orally the last 4 weeks, vs placebo
[3] = test system: Methionine Choline-Deficient (MCD) Mouse model NASH; assay: as above; type: in vivo; conditions: mice, MCD 8 weeks, 20 mg/kg orally the last 4 weeks, vs placebo; remark: listed apart in the source
Method: Mice were fed the Liver fibrosis-inducing Methionine Choline-Deficient (MCD) Mouse model NASH for 8 weeks, and the last 4 weeks they were dosed orally with 20 mg/kg of compound number 3 (RTX60933293), compound number 5 (RTX73145433), or placebo. After 8 weeks of MCD dosing, mice were sacrificed, and livers were extracted for nucleic acids and classical markers of liver fibrosis were assayed by QRTPCR.
Without wishing to be bound by theory, NASH could be considered the next-most common metabolic disturbance after Type 2 Diabetes in the USA, and currently has no approved treatment. There is a usual progression from NAFLD (fatty liver) to the more fibrotic/cirrhotic NASH. While the precise mechanism of the transition of NAFLD to NASH is not completely understood, hepatocyte death and resulting fibrosis has been proposed. Fibrosis and fibrotic scarring are thought to be the most important pathophysiological endpoints to end-stage NASH, which typically necessitates an expensive and difficult liver transplant. As shown in other examples, Shc blockers through their sensitization to insulin, IGF-1 and other growth factors, are cytoprotective. Thus, by inhibiting hepatocyte death which promotes fibrosis, they should also be anti-fibrotic.

O=C(NCCS(=O)(=O)Cc1ccccc1)N1CC=C(c2cccc3ccccc23)C1 [Compound 3] was tested. Which “glucose tolerizing effect in the Corticosteroid model” value [1] did it give?
Its value is “significantly glucose tolerizing”.

And the “GTT: glucose intolerance at time points after glucose administration” value [1]?
The value was “reduced glucose intolerance significantly at 4 time points”.

And the “GTT Area Under the Curve (AUC): glucose intolerance relative to placebo” value [1]?
Its value is “significantly reduced glucose intolerance”.

And the “liver fibrosis bio marker hydroxyproline” value [2]?
The value was “significantly reduced”.

What about the “Collagen 1a1 (Col1), liver, QRTPCR” value [3] of the same compound?
Its value is “significantly reduced”.

What about the “Matrix Metalloproteinase 2 (MMP2), liver, QRTPCR” value [3] of the same compound?
Its value is “significantly reduced”.

What about the “Tissue metallopeptidase inhibitor 1 (TIMP1), liver, QRTPCR” value [3] of the same compound?
The value was “significantly reduced”.

What about the “Transforming Growth Factor beta (TGF-b), liver, QRTPCR” value [3] of the same compound?
Its value is “significantly reduced”.

And the “alpha-smooth muscle actin (aSMA), liver, QRTPCR” value [3]?
Its value is “significantly reduced”.

Which “glucose tolerizing effect in the Corticosteroid model” value [1] does the source give for O=C(c1cccc(-n2cccc2)c1)N1CCOC(c2cccc(OC(F)F)c2)C1 (stereo not drawn) [Compound 5] here?
Its value is “significantly glucose tolerizing”.

What about the “GTT: glucose intolerance at time points after glucose administration” value [1] of the same compound?
Its value is “reduced glucose significantly at 2 time points”.

And the “GTT Area Under the Curve (AUC): glucose intolerance relative to placebo” value [1]?
Its value is “significantly reduced glucose intolerance”.

And the “liver fibrosis bio marker hydroxyproline” value [2]?
The value was “significantly reduced”.

And the “Collagen 1a1 (Col1), liver, QRTPCR” value [3]?
Its value is “significantly reduced”.

And the “Matrix Metalloproteinase 2 (MMP2), liver, QRTPCR” value [3]?
The value was “significantly reduced”.

What about the “Tissue metallopeptidase inhibitor 1 (TIMP1), liver, QRTPCR” value [3] of the same compound?
Its value is “significantly reduced”.

And the “Transforming Growth Factor beta (TGF-b), liver, QRTPCR” value [3]?
The value was “significantly reduced”.

What about the “alpha-smooth muscle actin (aSMA), liver, QRTPCR” value [3] of the same compound?
Its value is “significantly reduced”.

— patent US11685713B2, “Small molecule SHC blockers used for treating liver disease and metabolic disease” (Buto Corporation, priority 2019, dated 2023)
